Assay results: patent US20060134119A1, “Drugs containing galectin 9” (priority 2003, published 2006)

How the values were obtained:
MOLT-4 cells = test: Effects of Gal-9 on DEX-, anti-Fas Ab- or etoposide-induced apoptosis; assay type: cell-based, human; conditions: FIG. 9
Source text: The following agents were purchased from suppliers below: DEX (BioVision, CA, US), anti-Fas Ab (clone CH-11, MBL), TNFα (Genzyme, Cambridge, Mass., US), C2 ceramide (SIGMA), and etoposide (Biovision).
Effects of Gal-9 on the apoptosis induced by other stimuli (e.g. DEX, anti-Fas Ab, and etoposide) were examined.

CD8+ T cells = test: Apoptosis induction in peripheral blood CD8+ T cells, resting or anti-CD3 Ab-activated; assay type: cell-based, human; conditions: galectin (+), 1 μM rGal-9
Procedure: To prepare a well plate coated with anti-CD3 Ab, 24 well palates were incubated with TBS solution (pH 8.0) containing 3 μg/mL anti-CD3 Ab (Inmunotech, Marseille, France) per well at 4° C. overnight, and each well was washed with PBS after removing anti-CD3 Ab solution.
Mononuclear leukocyte fractions were isolated from heparinized blood using HISTOPAQUE (Registered trademark, SIGMA). CD4-Positive Isolation Kit (DYNAL, Oslo, Norway) was used for isolation of CD4+ T cells and Dynabeads M-450 CD8 (Registered trademark, DYNAL, Oslo, Norway) for isolation of CD8+ T cells, respectively, according to the manufacturer's instructions.
To activate T cells, CD4+ or CD8+ cells at 1×10^6 cells/mL in an RPMI-1640 medium containing 10% FCS were incubated on the plate coated with anti-CD3 Ab for 20 to 24 hr at 37° C. in a 5% CO2 incubator, and incubated with rGal-9 [(His)6-Gal-9(S)] at 37° C. in a 5% CO2 incubator. Then apoptosis assay was conducted as described in (c). That is, cells were incubated with 50 μg/mL PI (SIGMA) at 37° C. for 10 min in the dark. Stained cells were analyzed by flow cytometry (Sandstrom, K. et al., J Immunol Methods, 240: 55 (2000) and Zhang L. et al., Cancer Lett, 142: 129 (1999)).
Apoptosis assay was also conducted for non-activated (resting) T cells as described above after incubating them with rGal-9 [(His)6-Gal-9(S)] at 37° C. in a 5% Co2 incubator.
For comparison, galectin-1 and -3 treated cells were analyzed.
Next, apoptosis induction by Gal-9 in human peripheral blood T cells was examined. T cells were separated into CD4+ and CD8+ T cells followed by incubation in the presence or absence of anti-CD3 Ab. Resting T cells and anti-CD3 Ab-activated T cells were incubated with 1 μM rGal-9.

Galectin-9: Recombinant human galectin-9 expressed in E. coli and purified on lactose-agarose
effect of rGal-9 on anti-Fas Ab-induced apoptosis (MOLT-4 cells): additional effects | effect of rGal-9 on etoposide-induced apoptosis (MOLT-4 cells): additional effects | percentage (%) of apoptotic cells, rGal-9 with DEX (MOLT-4 cells): scarcely little or no difference | apoptosis induction, CD8 (CD8+ T cells; CD3 (+) cells activated on anti-CD3 Ab-coated plates): 25.7 | apoptosis induction, CD8 (CD8+ T cells; CD3 (−) untreated resting cells): 17.8
